This note sets out measurements from ChEMBL document CHEMBL1201862, “PubChem BioAssay data set” (2004).

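Cultured in 96-well plates, cells were exposed to test compound for 48 hours across five concentrations. Abbreviation: GI50, concentration required for 50% inhibition of growth.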 Calls of active or inactive are those of the source. Rule as the data show it: active = GI50 up to about 1.1 µM and inactive = higher.

Among the test systems are UACC-62; NCI-H522; Malme-3M; SK-MEL-28; SW-620; MOLT-4; OVCAR-4; HOP-92; RPMI-8226; UACC-257; SF-268; IGROV-1; NCI/ADR-RES; SK-OV-3; RXF 393; KM12; LOX IMVI; OVCAR-3; HOP-62; MCF7.
Holding throughout (assay): NCI tumour cell line growth inhibition, 48 h

Turning to `NCCC1(N)CCNCC1`, the GI50 was > 100 µM (inactive) with UACC-62; > 100 µM (inactive) in the assay with NCI-H522; > 100 µM (inactive) in the assay with Malme-3M; 48.4 µM (inactive) in the assay with SK-MEL-28; > 100 µM (inactive) with SW-620; > 100 µM (inactive) in the assay with MOLT-4. Further, the GI50 with OVCAR-4 is > 100 µM (inactive); in the assay on HOP-92, < 0.01 µM (active); in the assay with RPMI-8226, > 100 µM (inactive); in the assay with UACC-257, > 100 µM (inactive); in the assay on SF-268 it was > 100 µM (inactive); with IGROV-1, > 100 µM (inactive). Further, the GI50 in the assay on NCI/ADR-RES, in the assay on SK-OV-3, with RXF 393 and with KM12 was > 100 µM (inactive) throughout.
In the case of `Nc1nc(N)c2c(n1)NC(=O)c1c(c3ccccc3n1Cc1ccc(Cl)cc1)C2`, the GI50 in the assay on UACC-62 is 45.7 µM (inactive); in the assay on LOX IMVI, 19.1 µM (inactive); with Malme-3M it was 55.3 µM (inactive); in the assay with SK-MEL-28, 49 µM (inactive); in the assay on SW-620 it was 35.8 µM (inactive); in the assay with MOLT-4, 6.56 µM (inactive). The GI50 with OVCAR-4 was 18.5 µM (inactive); with HOP-92 it was 1.5 µM (inactive); with UACC-257, 64.1 µM (inactive); with SF-268, 45.5 µM (inactive); in the assay with OVCAR-3, 23.3 µM (inactive); in the assay on IGROV-1, 29.6 µM (inactive). The GI50 in the assay with HOP-62 is 25.5 µM (inactive); in the assay on NCI/ADR-RES, 26.6 µM (inactive); in the assay on SK-OV-3 it was 18.8 µM (inactive); in the assay on MCF7, 35.3 µM (inactive); with RXF 393, 15.5 µM (inactive).
On to `COc1ccc(C(=O)Cc2ccc(Cl)cc2)cc1OC`, for which the GI50 in the assay on UACC-62 was > 100 µM (inactive); with NCI-H522, 64.9 µM (inactive); with LOX IMVI, > 100 µM (inactive); in the assay on Malme-3M it was > 100 µM (inactive); in the assay on SW-620 it was > 100 µM (inactive); in the assay on MOLT-4 it was > 100 µM (inactive). For the same compound, the GI50 in the assay with OVCAR-4, with RPMI-8226, with UACC-257, in the assay on SF-268, in the assay on OVCAR-3 and with IGROV-1 was > 100 µM (inactive) each time. The GI50 in the assay with HOP-62, in the assay on SK-OV-3 and in the assay with RXF 393 was > 100 µM (inactive) throughout.
Regarding `COc1ccc(C2C(Cl)C(=O)N2NC(=O)c2ccccc2O)cc1` (centres undefined), the GI50 in the assay on UACC-62, in the assay with NCI-H522, in the assay with Malme-3M, in the assay with SK-MEL-28, with SW-620 and in the assay on MOLT-4 was > 100 µM (inactive) throughout. Further, the GI50 in the assay with OVCAR-4, in the assay on HOP-92, in the assay on RPMI-8226, with UACC-257, with SF-268 and in the assay on OVCAR-3 was > 100 µM (inactive) each time. For the same compound, the GI50 in the assay on IGROV-1, in the assay with HOP-62, in the assay with SK-OV-3, in the assay with RXF 393 and in the assay with KM12 was > 100 µM (inactive) throughout.
Turning to `CC(=O)NNc1nc(C)c(C(=O)NNC(=O)C(=O)Nc2cccc(C(C)=O)c2)s1`, the GI50 is 16.3 µM (inactive) in the assay with UACC-62; 15.2 µM (inactive) in the assay with NCI-H522; 21.2 µM (inactive) in the assay on LOX IMVI; 19.7 µM (inactive) in the assay on SK-MEL-28; 39.5 µM (inactive) with SW-620; 45.3 µM (inactive) in the assay with MOLT-4. For the same compound, the GI50 in the assay with OVCAR-4 is 25.2 µM (inactive); with HOP-92 it was 13.4 µM (inactive); in the assay on RPMI-8226, 40.1 µM (inactive); in the assay on UACC-257, 23.1 µM (inactive); in the assay with SF-268, 21.5 µM (inactive); in the assay on IGROV-1, 26.5 µM (inactive). In addition, the GI50 in the assay with HOP-62 was 25.3 µM (inactive); with SK-OV-3 it was 18.3 µM (inactive); with RXF 393, 16.5 µM (inactive); in the assay on KM12 it was 24.7 µM (inactive).
Turning to `COC(=O)[C@H](CC(C)C)NC(=O)[C@H](Cc1ccccc1)N1CC2C=CC1C2` (some centres undefined), the GI50 in the assay with UACC-62, with NCI-H522, in the assay with LOX IMVI, in the assay on Malme-3M, with SK-MEL-28 and in the assay on SW-620 was > 100 µM (inactive) each time. Also, the GI50 in the assay with MOLT-4 is > 100 µM (inactive); with OVCAR-4 it was > 100 µM (inactive); in the assay on HOP-92 it was 96.6 µM (inactive); in the assay on RPMI-8226 it was 29.1 µM (inactive); in the assay with UACC-257, > 100 µM (inactive); in the assay with SF-268, > 100 µM (inactive). Besides, the GI50 in the assay with OVCAR-3, with IGROV-1, with HOP-62, in the assay with SK-OV-3, in the assay with RXF 393 and with KM12 was > 100 µM (inactive) each time.
Turning to `C=CCN(N=O)C(=O)N(CCC)CCCCC(NC(C)=O)C(=O)NCc1ccccc1` (centres undefined), the GI50 with UACC-62 is > 100 µM (inactive); in the assay with NCI-H522 it was 73.6 µM (inactive); with LOX IMVI it was 67.1 µM (inactive); with Malme-3M it was > 100 µM (inactive); in the assay with SK-MEL-28, > 100 µM (inactive); with SW-620, > 100 µM (inactive). In addition, the GI50 with MOLT-4 was 22.5 µM (inactive); with OVCAR-4, 64.1 µM (inactive); with HOP-92, 23.2 µM (inactive); in the assay with RPMI-8226 it was 26.9 µM (inactive); with UACC-257 it was > 100 µM (inactive); in the assay with SF-268, > 100 µM (inactive). Besides, the GI50 was 75.5 µM (inactive) with OVCAR-3; > 100 µM (inactive) with IGROV-1; > 100 µM (inactive) in the assay with HOP-62; > 100 µM (inactive) in the assay on SK-OV-3; 38.1 µM (inactive) in the assay with RXF 393; 59.4 µM (inactive) in the assay with KM12.
As for `COC(=O)C1CCC(=O)N1C(=O)Cc1ccc(OC)cc1` (centres undefined), the GI50 in the assay with UACC-62, in the assay with NCI-H522, in the assay with LOX IMVI, in the assay on SK-MEL-28, in the assay on SW-620 and with OVCAR-4 was > 100 µM (inactive) throughout. The GI50 in the assay on HOP-92, in the assay with UACC-257, in the assay with SF-268, in the assay on OVCAR-3, in the assay on IGROV-1 and in the assay with SK-OV-3 was > 100 µM (inactive) in each case. The GI50 with KM12 was > 100 µM (inactive).
On to `Cn1ccnc1C(O)(c1nccn1C)c1nccn1C`, for which the GI50 with NCI-H522, in the assay with LOX IMVI, in the assay with Malme-3M, in the assay on SK-MEL-28, in the assay with SW-620 and in the assay on OVCAR-4 was > 100 µM (inactive) throughout. Besides, the GI50 with HOP-92, in the assay with UACC-257, in the assay with SF-268, in the assay on HOP-62, in the assay with RXF 393 and in the assay with KM12 was > 100 µM (inactive) throughout.
As for `CCCCP1(=O)C=CC(Cl)=C(C)C1` (centres undefined), the GI50 with UACC-62, in the assay on NCI-H522, in the assay with Malme-3M, in the assay with SK-MEL-28, with SW-620 and with MOLT-4 was > 100 µM (inactive) in each case. For the same compound, the GI50 with OVCAR-4, with HOP-92, with UACC-257, in the assay with SF-268, in the assay on OVCAR-3 and in the assay with IGROV-1 was > 100 µM (inactive) each time. The GI50 with HOP-62, in the assay with RXF 393 and with KM12 was > 100 µM (inactive) each time.
On to `c1ccc(COC2(OCc3ccccc3)CC3OC2C2NN=NC32)cc1` (centres undefined), for which the GI50 in the assay with UACC-62 was 21.3 µM (inactive); with LOX IMVI, 16.8 µM (inactive); in the assay with Malme-3M it was 22.4 µM (inactive); in the assay with SK-MEL-28, 18.8 µM (inactive); with SW-620, 12.5 µM (inactive); with MOLT-4, 12.5 µM (inactive). The GI50 in the assay with OVCAR-4 is 17.9 µM (inactive); in the assay on HOP-92, 19.6 µM (inactive); with RPMI-8226, 13.7 µM (inactive); with UACC-257 it was 18.5 µM (inactive); in the assay on SF-268, 22.1 µM (inactive); in the assay on OVCAR-3 it was 18.3 µM (inactive). Moreover, the GI50 in the assay with IGROV-1 was 28.6 µM (inactive); in the assay with HOP-62, 41.9 µM (inactive); in the assay with SK-OV-3 it was > 100 µM (inactive); in the assay on RXF 393, 41.7 µM (inactive); with KM12, 28.7 µM (inactive).
On to `COc1cc(C2c3cc4c(cc3OC3(O)COC(=O)C23)OCO4)cc(OC)c1OC` (centres undefined), for which the GI50 with UACC-62 was 44.3 µM (inactive); in the assay on NCI-H522, 22.7 µM (inactive); in the assay with LOX IMVI it was 47.5 µM (inactive); in the assay on Malme-3M, 81.1 µM (inactive); in the assay on SW-620, 35 µM (inactive); in the assay with MOLT-4, 42.6 µM (inactive). Besides, the GI50 with OVCAR-4 is > 100 µM (inactive); with RPMI-8226 it was 58.2 µM (inactive); in the assay on UACC-257, 55 µM (inactive); in the assay with SF-268 it was 85.3 µM (inactive); in the assay with OVCAR-3 it was 33 µM (inactive); in the assay with IGROV-1, 48.9 µM (inactive). Further, the GI50 in the assay on HOP-62 is 62.7 µM (inactive); in the assay on SK-OV-3, 25.1 µM (inactive); with RXF 393, 31.3 µM (inactive).
